Test results: patent US20230158034A1, “CO-TREATMENT WITH CDK4/6 AND CDK2 INHIBITORS TO SUPPRESS TUMOR ADAPTATION TO CDK2 INHIBITORS” (Pfizer Inc., priority 2020, published 2023)

Assays:
[1] = Half-life of PF3600 in cells; format: in vitro ADME
[2] = system: CDK2 T-loop phosphorylation, Cyclin E1, p21; assay: Western blots of palbociclib-treated lung tumors; format: in vivo, mouse; details: palbociclib 70 mg/kg QD for 28 days
Procedure: To test the potential compensatory relationship between CDK2 and CDK4/6 in vivo, an established mouse lung tumor model driven by KRAS^G12V and TRP53 mutations was used. Kras^+/LSLG12V, Trp53^L/L mice intra-nasally infected with adenoviral particles encoding Cre recombinase developed lung tumors with a latency of 5 months. Once tumor development was detected by CT scans, animals were treated with either vehicle or palbociclib (70 mg/kg QD) for 28 days and tumor volumes were subsequently measured by CT scans at the end of the treatment period.
For western blots in FIG. 7B, protein extraction was performed in protein lysis buffer (50 mM Tris-HCl pH 7.4, 150 mM NaCl, 0.5% NP-40) supplemented with a cocktail of protease and phosphatase inhibitors (complete Mini, Roche, 11836153001; Phosphatase Inhibitor Cocktail 2 and 3, Sigma, P5726 and P0044). Protein concentrations were measured using Bradford (Bio-Rad) method. […] of protein extracts obtained from tumor tissue were separated on NUPAGE™ 4-12% Bis-Tris Midi gels (Invitrogen), transferred to a nitrocellulose membrane (GE Healthcare) and blotted with primary antibodies. Primary antibodies were detected with goat secondary antibodies directed against mouse or rabbit IgGs (HRP, Dako, and Alexa Fluor 680, Invitrogen) and visualized with ECL Western Blot detection solution (GE Healthcare).

SMILES | half-life [1] | CDK2 T-loop phosphorylation and Cyclin E1 in tumors (western blot) [2] | p21 in tumors (western blot) [2]
C[C@@]1(O)CCC[C@H]1n1c(=O)c(C(F)F)cc2cnc(NC3CCN(S(C)(=O)=O)CC3)nc21 [PF3600, 6-(difluoromethyl)-8-[(1R,2R)-2-hydroxy-2-methylcyclopentyl]-2-{[1-(methylsulfonyl)-piperidin-4-yl]amino}pyrido[2,3-d]pyrimidin-7(8H)-one] | ~30 h | – | –
CC(=O)c1c(C)c2cnc(Nc3ccc(N4CCNCC4)cn3)nc2n(C2CCCC2)c1=O [palbociclib] | – | upregulation of CDK2 T-loop phosphorylation and Cyclin E1 | significant downregulation of the CDK inhibitor p21
